Assay results taken from patent US6030942A, “Peptides peptide analogs peptidomimetics and other small molecules useful for inhibiting the activity of ribonucleotide reductase” (The Trustees of the University of Pennsylvania, priority 1998, dated 2000).
“Also recorded” adds a separate entry of the source. Like-named read-outs stand apart in the source and are kept apart here. One block for each molecule: values may come before it. Ends that are not written are not given here.

Experiments:
[1] = molecular target: T1, mammalian ribonucleotide reductase (Bos taurus, UniProt Q32LP1); test: Peptide inhibition of mammalian ribonucleotide reductase activity; assay type: biochemical; conditions: for Fold decrease in RI relative to N-AcFTLDADF / % RI (relative inhibitory potency, (IC50 AcFTLDADF)/(IC50 peptide analog)) / IC50: Table 8; for % RI (relative inhibitory potency, (IC50 AcFTLDADF)/(IC50 peptide analog)): mean and average deviation of 2-3 determinations, others single; for IC50: Dixon plots of 4-6 concentration points, ranges are two independent determinations
T1 sequence (Q32LP1 1-791): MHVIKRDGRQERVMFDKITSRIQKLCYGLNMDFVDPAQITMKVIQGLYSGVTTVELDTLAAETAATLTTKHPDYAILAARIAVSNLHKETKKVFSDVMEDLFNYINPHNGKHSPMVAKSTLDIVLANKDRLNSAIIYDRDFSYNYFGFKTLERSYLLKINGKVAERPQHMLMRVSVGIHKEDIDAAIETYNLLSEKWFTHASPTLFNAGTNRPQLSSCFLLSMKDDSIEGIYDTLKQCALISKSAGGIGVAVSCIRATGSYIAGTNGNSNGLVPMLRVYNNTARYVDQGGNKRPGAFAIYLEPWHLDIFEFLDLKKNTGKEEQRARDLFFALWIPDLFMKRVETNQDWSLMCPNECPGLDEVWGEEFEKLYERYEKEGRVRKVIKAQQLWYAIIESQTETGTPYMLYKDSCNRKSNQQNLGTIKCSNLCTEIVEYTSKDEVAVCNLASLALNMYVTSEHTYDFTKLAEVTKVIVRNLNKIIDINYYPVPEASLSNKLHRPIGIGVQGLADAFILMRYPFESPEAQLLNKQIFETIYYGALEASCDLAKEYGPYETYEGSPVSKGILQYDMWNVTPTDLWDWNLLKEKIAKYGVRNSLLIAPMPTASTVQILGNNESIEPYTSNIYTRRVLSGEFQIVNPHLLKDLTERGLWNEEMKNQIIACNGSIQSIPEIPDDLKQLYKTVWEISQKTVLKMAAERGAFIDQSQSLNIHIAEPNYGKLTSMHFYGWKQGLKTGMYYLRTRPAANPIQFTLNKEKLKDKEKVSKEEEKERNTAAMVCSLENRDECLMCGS
From the text: All three methods yielded acceptable results, with the following limitations. Method 1 is useful for the assay of CDP to dCDP and ADP to dADP conversions, but is not useful for the assay of GDP reduction. It is also sensitive to large changes in the nucleotide composition of the assay medium. […] Method 2 is the easiest to perform on purified enzymes, and can be used with all four NDPs as substrates, but is difficult to use with crude enzyme, largely because contaminating phosphatase activities can skew results. Method 3 is usable with all four NDPs, but is also somewhat sensitive to large changes in the nucleotide composition of the assay medium and requires column separation at 4° C.

[2] = molecular target: S. cerevisiae ribonucleotide reductase (Saccharomyces cerevisiae, UniProt P21524); test: Peptide inhibition of S. cerevisiae ribonucleotide reductase activity; assay type: biochemical; conditions: Table 9; read-out: IC50, Yeast RR
[3] = molecular target: T2, mouse Y177F-R2 with recombinant mouse R1 (Mus musculus, UniProt P07742+P11157, Y177F); test: Inhibition of Y177F-R2-dependent RR activity; conditions: dATP in presence of relatively high ATP
T2 sequence (P07742 1-792): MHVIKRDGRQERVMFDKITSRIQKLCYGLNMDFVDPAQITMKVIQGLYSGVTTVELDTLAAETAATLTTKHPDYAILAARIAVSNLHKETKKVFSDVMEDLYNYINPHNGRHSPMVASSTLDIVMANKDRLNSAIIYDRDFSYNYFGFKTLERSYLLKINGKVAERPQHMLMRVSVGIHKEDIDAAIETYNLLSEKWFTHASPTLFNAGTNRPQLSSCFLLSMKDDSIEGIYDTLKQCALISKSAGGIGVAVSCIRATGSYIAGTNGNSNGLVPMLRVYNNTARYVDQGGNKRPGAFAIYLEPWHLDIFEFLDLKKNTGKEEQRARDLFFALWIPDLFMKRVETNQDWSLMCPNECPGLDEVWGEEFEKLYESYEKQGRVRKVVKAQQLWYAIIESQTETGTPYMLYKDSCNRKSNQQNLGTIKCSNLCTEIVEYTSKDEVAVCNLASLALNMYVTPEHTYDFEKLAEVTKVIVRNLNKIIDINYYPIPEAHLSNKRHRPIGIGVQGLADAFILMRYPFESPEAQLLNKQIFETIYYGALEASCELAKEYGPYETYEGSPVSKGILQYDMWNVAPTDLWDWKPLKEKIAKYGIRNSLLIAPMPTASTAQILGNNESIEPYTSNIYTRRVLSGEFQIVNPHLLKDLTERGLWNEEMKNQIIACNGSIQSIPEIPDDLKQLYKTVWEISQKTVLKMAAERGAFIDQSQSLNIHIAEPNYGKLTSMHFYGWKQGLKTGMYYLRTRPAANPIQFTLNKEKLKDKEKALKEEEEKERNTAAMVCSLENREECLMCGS
T2 sequence (P11157 1-390 Y177F): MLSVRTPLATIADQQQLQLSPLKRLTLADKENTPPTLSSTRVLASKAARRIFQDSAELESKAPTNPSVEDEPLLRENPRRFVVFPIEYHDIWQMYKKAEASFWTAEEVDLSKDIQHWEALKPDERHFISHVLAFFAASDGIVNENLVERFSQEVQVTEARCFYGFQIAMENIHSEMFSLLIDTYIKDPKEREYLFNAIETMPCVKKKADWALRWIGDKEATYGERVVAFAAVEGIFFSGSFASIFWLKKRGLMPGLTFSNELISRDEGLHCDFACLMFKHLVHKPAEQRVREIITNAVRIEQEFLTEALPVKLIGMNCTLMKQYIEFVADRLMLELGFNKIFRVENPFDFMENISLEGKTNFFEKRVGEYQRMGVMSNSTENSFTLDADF

RR = molecular target: T3, RR (Mus musculus, UniProt P07742); test: Biological Evaluation of Compound (8): RR activity; assay type: biochemical
T3 sequence (P07742 1-792): T2 sequence (P07742 1-792)
From the text: Standard assays of RR activity used in the studies presented herein involve the conversion of [^3 H]-ribonucleoside diphosphate (NDP) to [^3 H]-deoxyribonucleoside diphosphate (dNDP), using dithiothreitol as the external reductant. Three methods were examined: Method 1 (Steeper et al., 1970, Anal. Biochem. 34:123-130), involving the conversion of diphosphates to nucleosides by enzymatic digestion, followed by the separation of deoxynucleoside from nucleoside on Dowex-1-borate columns; Method 2 (Moore et al., 1974, Biochemistry 13:2904-2907), involving the direct separation of dNDP from NDP on aminophenylboronate columns; Method 3 (Sato et al., 1983, Anal. Biochem. 135:431-435) involving the conversion of diphosphates to nucleosides by enzymatic digestion, followed by the separation of deoxynucleoside from nucleoside on polyethyleneimine-cellulose columns.
All three methods yielded acceptable results, with the following limitations. Method 1 is useful for the assay of CDP to dCDP and ADP to dADP conversions, but is not useful for the assay of GDP reduction. It is also sensitive to large changes in the nucleotide composition of the assay medium. Thus, it is quite useful for standard assays (purifications, tests of peptide inhibition), but difficult to apply when concentrations and substrate are widely varied. […]

E. coli RR = E. coli RR (Escherichia coli, UniProt P00452); conditions: cited from earlier work
Sequence of E. coli RR (P00452 whole entry): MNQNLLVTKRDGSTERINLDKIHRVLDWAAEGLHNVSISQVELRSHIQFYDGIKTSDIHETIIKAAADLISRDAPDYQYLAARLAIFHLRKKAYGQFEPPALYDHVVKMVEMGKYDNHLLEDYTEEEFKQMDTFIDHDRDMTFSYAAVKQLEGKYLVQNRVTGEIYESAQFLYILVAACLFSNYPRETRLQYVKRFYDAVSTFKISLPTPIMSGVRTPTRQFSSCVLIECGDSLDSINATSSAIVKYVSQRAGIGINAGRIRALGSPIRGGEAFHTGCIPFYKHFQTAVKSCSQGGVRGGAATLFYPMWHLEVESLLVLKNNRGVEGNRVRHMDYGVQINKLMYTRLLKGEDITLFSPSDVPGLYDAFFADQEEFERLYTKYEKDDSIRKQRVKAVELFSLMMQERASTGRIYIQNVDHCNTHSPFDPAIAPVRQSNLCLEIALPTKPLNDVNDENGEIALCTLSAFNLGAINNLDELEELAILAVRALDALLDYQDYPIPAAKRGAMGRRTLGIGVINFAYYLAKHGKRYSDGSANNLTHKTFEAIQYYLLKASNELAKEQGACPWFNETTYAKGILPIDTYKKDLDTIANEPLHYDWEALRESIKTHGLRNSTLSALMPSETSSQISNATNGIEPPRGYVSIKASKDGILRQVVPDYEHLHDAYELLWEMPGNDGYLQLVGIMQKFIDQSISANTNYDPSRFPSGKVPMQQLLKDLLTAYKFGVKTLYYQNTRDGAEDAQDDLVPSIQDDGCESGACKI

Sequence of S. cerevisiae ribonucleotide reductase (P21524 whole entry): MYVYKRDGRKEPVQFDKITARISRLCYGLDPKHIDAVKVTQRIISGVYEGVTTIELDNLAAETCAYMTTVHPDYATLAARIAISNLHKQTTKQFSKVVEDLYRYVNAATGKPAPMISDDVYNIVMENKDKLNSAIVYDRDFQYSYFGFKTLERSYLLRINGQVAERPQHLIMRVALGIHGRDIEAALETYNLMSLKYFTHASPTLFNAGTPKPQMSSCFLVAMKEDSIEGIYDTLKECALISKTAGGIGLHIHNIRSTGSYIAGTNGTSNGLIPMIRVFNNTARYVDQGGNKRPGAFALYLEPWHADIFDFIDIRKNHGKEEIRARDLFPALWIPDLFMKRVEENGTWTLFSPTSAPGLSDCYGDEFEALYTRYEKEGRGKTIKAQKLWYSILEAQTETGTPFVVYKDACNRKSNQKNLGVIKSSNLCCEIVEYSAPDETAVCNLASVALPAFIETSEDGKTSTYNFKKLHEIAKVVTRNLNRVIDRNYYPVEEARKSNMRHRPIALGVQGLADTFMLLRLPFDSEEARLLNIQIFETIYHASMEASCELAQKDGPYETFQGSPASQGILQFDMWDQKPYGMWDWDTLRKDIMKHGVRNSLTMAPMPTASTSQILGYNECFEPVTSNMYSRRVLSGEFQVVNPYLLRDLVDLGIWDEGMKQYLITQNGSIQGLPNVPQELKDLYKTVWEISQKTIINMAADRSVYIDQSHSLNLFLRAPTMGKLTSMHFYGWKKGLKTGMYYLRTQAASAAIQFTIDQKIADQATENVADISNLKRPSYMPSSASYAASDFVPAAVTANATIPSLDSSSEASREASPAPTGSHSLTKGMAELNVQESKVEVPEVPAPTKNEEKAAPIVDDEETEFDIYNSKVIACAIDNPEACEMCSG

Fold decrease in RI relative to N-AcFTLDADF [1]: five to ten | % RI (relative inhibitory potency, (IC50 AcFTLDADF)/(IC50 peptide analog)) [1]: 10%
Molecule: Acetyl-(p-amino-Phe)-Thr-Leu-Asp-Ala-Asp-Phe [Ac-F(4'-NH2)TLDADF]

Fold decrease in RI relative to N-AcFTLDADF [1]: three to four | % RI (relative inhibitory potency, (IC50 AcFTLDADF)/(IC50 peptide analog)) [1]: 23 ± 1.0%
Molecule: Ac-FTLDANF [Ac-FTLDANF]

% RI (relative inhibitory potency, (IC50 AcFTLDADF)/(IC50 peptide analog)) [1]: 2.1%
Molecule: Ac-FTLDADFAA

IC50 ([1]; read-out: IC50): 25 to 29 µM
Molecule: Ac-FTLNADF [Ac-FTLNADF, Acetyl-Phe-Thr-Leu-Asn-Ala-Asp-Phe]

Molecule: Ac-FSLDADF [Ac-FSLDADF, Acetyl-Phe-Ser-Leu-Asp-Ala-Asp-Phe]
IC50 [1]: 40 to 42 µM

Molecule: Ac-TFNEDF [AcTFNEDF]
IC50 [2]: 600 µM

IC50 ([1]; read-out: IC50): 412 µM
Molecule: Ac-FLDADF [Ac-F-LDADF]

Fold decrease in RI relative to N-AcFTLDADF [1]: > 30 fold | % RI (relative inhibitory potency, (IC50 AcFTLDADF)/(IC50 peptide analog)) [1]: 2.9 ± 0.4%
Molecule: Ac-FTLAADF [Ac-FTLAADF]

IC50 ([1]; read-out: IC50): 9 to 15 µM
Molecule: Ac-NSFTLDADF

IC50 [3]: 20 µM
Molecule: Nc1ncnc2c1ncn2[C@H]1C[C@H](O)[C@@H](COP(=O)(O)OP(=O)(O)OP(=O)(O)O)O1 [dATP]

IC50 ([1]; read-out: IC50): 35 to 40 µM
Molecule: Ac-FALDADF [Ac-FALDADF, Acetyl-Phe-Ala-Leu-Asp-Ala-Asp-Phe]

Molecule: Ac-FTLDADF [Ac-FTLDADF, Acetyl-Phe-Thr-Leu-Asp-Ala-Asp-Phe]
IC50 ([1]; read-out: IC50): 8 to 20 µM | RR Activity (RR; compound at 10 μM): 0.39 ± 0.07 | RR Activity (RR; compound at 66 μM): 0.12 | IC50 (E. coli RR; E. coli R1 protein / RR): > 1000 µM | Inhibition of E. coli RR (E. coli RR): at best a very poor inhibitor of eRR; also recorded: failure to significantly inhibit E. coli RR up to concentrations of 1 mM

RR inhibition compared with AcFTLDADF [1]: comparable to AcFTLDADF
Molecule: FA-DAP-C(N)FTLDADF: folate-peptide conjugate: γ-1,5-diaminopentane folate condensate coupled to thiol of NCFTLDADF via sulfo-MBS (not fully specified (residue 2))

% RI (relative inhibitory potency, (IC50 AcFTLDADF)/(IC50 peptide analog)) [1]: 35%
Molecule: Ac-FTVDADF [Ac-FTVDADF]
